Values of other authors as cited in patent publication US20100292326A1, “PHARMACEUTICAL COMPOSITION COMPRISING S-NITROSOGLUTATHIONE AND POLYSACCHARIDE” (priority 2007, published 2010).

Details: buffer

- half-life: 5.5 h
SMILES: N[C@@H](CCC(=O)N[C@@H](CSN=O)C(=O)NCC(=O)O)C(=O)O [GSNO, S-nitrosoglutathione]
